Patent publication EP4120837B1, “INHIBITORS OF CYTOKININ OXIDASE DERIVED FROM 2-(3-PHENYLUREIDO)BENZAMIDE, USE THEREOF AND PREPARATIONS CONTAINING THESE DERIVATIVES” (Univerzita Palackého v Olomouci, priority 2020, dated 2021)

molecular target: T1, ZmCKX1 (Zea mays, UniProt Q9T0N8); assay: ZmCKX1 inhibition, PMS/MTT assay; type: biochemical, maize; details: not given
T1 construct: made in house; host or cells: Yarrowia lipolytica
Experimental: The IC50 (concentration of a substance that causes 50% inhibition of the enzyme activity) was measured by PMS/MTT assay [phenazine methosulphate/3-(4,5-dimethylthiazol-2-yl)-2,5-diphenyltetrazolium bromide]. The assay was performed in 96-well microtiter plates. Each well contained a reaction mixture with a final concentration of: 0.1 M KH2PO4, pH 7.4, 1 mM MTT, 0.2 mM PMS, tested substance in a concentration range of 0.1 nM - 1 µM and 10 µM N^6-isopentenyladenine (iP) as a substrate. To this reaction mixture 100 µL of medium containing the active enzyme ZmCKX1 was added. The enzyme was produced by the yeast Yarrowia lipolytica and isolated according to the protocol (Kopečný D. et al., 2005, […] 87:1011-1022). The plates were incubated for 30 min at 37 °C and the enzymatic reaction was stopped by the addition of 25 µL of 35% acetic acid. Then, the absorbance at 578 nm was measured on a spectrophotometer, and the absorbance of the sample without the substrate was substracted as a reference value. The IC50 value was determined from the concentration-dependent curves in GraphPad Prism software. The values shown in Table 1 are the average of at least two measurements each performed in three repetitions. […] The substance 3,5DCl-Ph-U is 1-(3,5-dichlorophenyl)-3-phenylurea, which we have been prepared to compare its inhibitory activity with the compounds presented in the present invention. Addition of the amide group to the unsubstituted phenyl ring of this substance gives the compound 2AD-3,5DC, which has 42-fold better inhibitory activity with the ZmCKX1 enzyme than 3,5DCl-Ph-U. F-INCYDE ((2-fluoro-9H-purin-6-yl)-(3-methoxyphenyl)amine), CPPU (1-(2-chloropyridin-4-yl)-3-phenylurea), and DCPPU (1-(2,6-dichloropyridin-4-yl)-3-phenylurea) are substances known in the prior art.

T1 sequence (Q9T0N8 19-534): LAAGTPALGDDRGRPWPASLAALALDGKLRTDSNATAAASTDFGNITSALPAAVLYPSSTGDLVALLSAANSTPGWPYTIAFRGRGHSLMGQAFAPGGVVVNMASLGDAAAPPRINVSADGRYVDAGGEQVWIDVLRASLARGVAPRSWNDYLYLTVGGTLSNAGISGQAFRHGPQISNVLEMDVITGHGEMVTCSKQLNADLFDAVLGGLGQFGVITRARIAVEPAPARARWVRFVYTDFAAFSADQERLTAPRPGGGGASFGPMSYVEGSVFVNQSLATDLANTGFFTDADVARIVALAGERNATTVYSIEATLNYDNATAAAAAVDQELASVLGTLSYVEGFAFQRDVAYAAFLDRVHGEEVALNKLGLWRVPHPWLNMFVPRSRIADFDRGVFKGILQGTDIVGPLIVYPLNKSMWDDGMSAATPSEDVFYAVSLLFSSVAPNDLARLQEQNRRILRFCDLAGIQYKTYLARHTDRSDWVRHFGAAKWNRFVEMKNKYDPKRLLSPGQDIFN

Compound	IC50 [µM]
O=C(Nc1ccccc1)Nc1ccnc(Cl)c1 [CPPU, 1-(2-chloro-4-pyridyl)-3-phenylurea, reference compound]	18
NC(=O)c1ccccc1NC(=O)Nc1cccc(Br)c1 [compound 2, 2-[3-(3-bromophenyl)ureido]benzamide]	0.34
NC(=O)c1ccccc1NC(=O)Nc1cc(Br)cc(Br)c1 [compound 7, 2-[3-(3,5-dibromophenyl)ureido]benzamide]	0.047
NC(=O)c1ccccc1NC(=O)Nc1cc(Cl)cc(Br)c1 [compound 9, 2-[3-(3-bromo-5-chlorophenyl)ureido]benzamide]	0.04
NC(=O)c1ccccc1NC(=O)Nc1cc(Cl)cc(OC(F)(F)F)c1 [compound 11, 2-[3-(3-Chloro-5-trifluoromethoxyphenyl)ureido]benzamide]	0.12
NC(=O)c1ccc(F)cc1NC(=O)Nc1cccc(Cl)c1 [compound 12, 2-[3-(3-chlorophenyl)ureido]-4-fluorobenzamide]	0.09
COc1cc(Cl)cc(NC(=O)Nc2cc(Br)ccc2C(N)=O)c1 [compound 20, 4-bromo-2-[3-(3-chloro-5-methoxyphenyl)ureido]benzamide]	0.034
COc1ccc(C(N)=O)c(NC(=O)Nc2cccc(Br)c2)c1 [compound 23, 2-[3-(3-bromophenyl)ureido]-4-methoxybenzamide]	0.033
COc1ccc(C(N)=O)c(NC(=O)Nc2cc(Cl)cc(Br)c2)c1 [compound 25, 2-[3-(3-bromo-5-chlorophenyl)ureido]-4-methoxybenzamide]	0.001
NC(=O)c1ccc(OC(F)(F)F)cc1NC(=O)Nc1cccc(Br)c1 [compound 27, 2-[3-(3-bromophenyl)ureido]-4-trifluoromethoxybenzamide]	0.007
NC(=O)c1ccc(OC(F)(F)F)cc1NC(=O)Nc1cc(Cl)cc(Cl)c1 [compound 28, 2-[3-(3,5-Dichlorophenyl)ureido]-4-trifluoromethoxybenzamide]	0.001
CCNC(=O)c1ccc(Br)cc1NC(=O)Nc1cc(Cl)cc(Cl)c1 [compound 35, 4-Bromo-2-[3-(3,5-dichlorophenyl)ureido]-N-ethylbenzamide]	0.003

same assay, conditions: 10 µM iP as substrate, pH 7.4, 30 min at 37 °C; average of at least two measurements; read-out: IC50 (µM) ZmCKX1

Compound	IC50 [µM]
O=C(Nc1ccccc1)Nc1cc(Cl)cc(Cl)c1 [3,5DCl-Ph-U, 1-(3,5-dichlorophenyl)-3-phenylurea, reference compound]	0.84
O=C(Nc1ccccc1)Nc1cc(Cl)nc(Cl)c1 [DCPPU, 1-(2,6-dichloropyridin-4-yl)-3-phenylurea, reference compound]	4.5
COc1cccc(Nc2nc(F)nc3[nH]cnc23)c1 [F-INCYDE, (2-fluoro-9H-purin-6-yl)-(3-methoxyphenyl)amine, reference compound]	1
CCNC(=O)c1ccccc1NC(=O)Nc1cc(Cl)cc(Cl)c1 [compound 34, 2-[3-(3,5-dichlorophenyl)ureido]-N-ethylbenzamide]	0.038

More lines, now with the values ahead:

IC50 [µM]	Compound
0.45	NC(=O)c1ccccc1NC(=O)Nc1cccc(F)c1 [compound 1, 2-[3-(3-fluorophenyl)ureido]benzamide]
0.32	COc1cccc(NC(=O)Nc2ccccc2C(N)=O)c1 [compound 3]
0.21	NC(=O)c1ccccc1NC(=O)Nc1cccc(OC(F)(F)F)c1 [compound 4]
0.16	NC(=O)c1ccccc1NC(=O)Nc1cc(F)cc(F)c1 [compound 5, 2-[3-(3,5-difluorophenyl)ureido]benzamide]
0.022	NC(=O)c1ccccc1NC(=O)Nc1cc(Cl)cc(Cl)c1 [compound 6, 2-[3-(3,5-Dichlorophenyl)ureido]benzamide]
0.11	NC(=O)c1ccccc1NC(=O)Nc1cc(F)cc(Cl)c1 [compound 8, 2-[3-(3-Chloro-5-fluorophenyl)ureido]benzamide]
0.07	Cc1cc(Cl)cc(NC(=O)Nc2ccccc2C(N)=O)c1 [compound 10, 2-[3-(3-chloro-5-methylphenyl)ureido]benzamide]
0.018	NC(=O)c1ccc(F)cc1NC(=O)Nc1cc(Cl)cc(Cl)c1 [compound 13, 2-[3-(3,5-dichlorophenyl)ureido]-4-fluorobenzamide]
0.028	COc1cc(Cl)cc(NC(=O)Nc2cc(F)ccc2C(N)=O)c1 [compound 14, 2-[3-(3-chloro-5-methoxyphenyl)ureido]-4-fluorobenzamide]
0.035	NC(=O)c1ccc(Cl)cc1NC(=O)Nc1cccc(Cl)c1 [compound 15, 4-chloro-2-[3-(3-chlorophenyl)ureido]benzamide]
0.002	NC(=O)c1ccc(Cl)cc1NC(=O)Nc1cc(Cl)cc(Cl)c1 [compound 16, 4-Chloro-2-[3-(3,5-dichlorophenyl)ureido]benzamide]
0.058	COc1ccc(C(N)=O)c(NC(=O)Nc2cccc(F)c2)c1 [compound 21, 2-[3-(3-fluorophenyl)ureido]-4-methoxybenzamide]
0.035	COc1ccc(C(N)=O)c(NC(=O)Nc2cccc(Cl)c2)c1 [compound 22, 2-[3-(3-chlorophenyl)ureido]-4-methoxybenzamide]
0.009	NC(=O)c1ccc(OC(F)(F)F)cc1NC(=O)Nc1cccc(Cl)c1 [compound 26, 2-[3-(3-chlorophenyl)ureido]-4-trifluoromethoxybenzamide]
0.03	CNC(=O)c1ccccc1NC(=O)Nc1cc(Cl)cc(Cl)c1 [compound 29, 2-[3-(3,5-dichlorophenyl)ureido]-N-methylbenzamide]
0.021	CNC(=O)c1ccc(F)cc1NC(=O)Nc1cc(Cl)cc(Cl)c1 [compound 30, 2-[3-(3,5-dichlorophenyl)ureido]-4-fluoro-N-methylbenzamide]
0.014	CNC(=O)c1ccc(Cl)cc1NC(=O)Nc1cc(Cl)cc(Cl)c1 [compound 31, 4-chloro-2-[3-(3,5-dichlorophenyl)ureido]-N-methylbenzamide]
0.006	CNC(=O)c1ccc(OC)cc1NC(=O)Nc1cccc(Cl)c1 [compound 33, 2-[3-(3-chlorophenyl)ureido]-4-methoxy-N-methylbenzamide]
0.021	CCNC(=O)c1ccc(OC)cc1NC(=O)Nc1cccc(Cl)c1 [compound 36, 2-[3-(3-chlorophenyl)ureido]-4-methoxy-N-ethylbenzamide]
0.002	CCNC(=O)c1ccc(OC)cc1NC(=O)Nc1cc(Cl)cc(Cl)c1 [compound 37, 2-[3-(3,5-dichlorophenyl)ureido]-4-methoxy-N-ethylbenzamide]
0.001	CCNC(=O)c1ccc(OC(F)(F)F)cc1NC(=O)Nc1cc(F)cc(Cl)c1 [compound 38, 2-[3-(3-chloro-5-fluorophenyl)ureido]-4-trifluoromethoxy-N-ethylbenzamide]

same assay, conditions: ratio versus 3,5DCl-Ph-U

better inhibitory activity with the ZmCKX1 enzyme than 3,5DCl-Ph-U [fold]	Compound
42	NC(=O)c1ccccc1NC(=O)Nc1cc(Cl)cc(Cl)c1 [compound 6, 2-[3-(3,5-Dichlorophenyl)ureido]benzamide]

same assay, conditions: read-out: IC50 (µM) ZmCKX1; 10 µM iP as substrate, pH 7.4, 30 min at 37 °C; average of at least two measurements

Compound	IC50 [µM]
NC(=O)c1ccc(Cl)cc1NC(=O)Nc1cc(Cl)cc(Br)c1 [compound 17, 2-[3-(3-bromo-5-chlorophenyl)ureido]-4-chlorobenzamide]	0.001
NC(=O)c1ccc(Br)cc1NC(=O)Nc1cccc(Cl)c1 [compound 18, 4-bromo-2-[3-(3-chlorophenyl)ureido]benzamide]	0.011
NC(=O)c1ccc(Br)cc1NC(=O)Nc1cc(Cl)cc(Cl)c1 [compound 19, 4-Bromo-2-[3-(3,5-dichlorophenyl)ureido]benzamide]	0.001
CNC(=O)c1ccc(Br)cc1NC(=O)Nc1cc(Cl)cc(Cl)c1 [compound 32, 4-bromo-2-[3-(3,5-dichlorophenyl)ureido]-N-methylbenzamide]	0.01
